What was measured:
Format in all cases: in vivo
[1] = tested on: Alopecurus myosuroides (ALOMY); assay: B1 Pre-emergence herbicidal activity; set-up: key: 5=total damage to plant; 0=no damage to plant; conditions: pre-emergence application, rate 1000 g/ha, evaluated after 13 days
In short: (§1)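 Pots of sown seeds were sprayed one day after sowing, pre-emergence, with compound in acetone/water (50:50) containing 0.5% Tween 20. Plants were grown in a glasshouse at 24/16 °C day/night, 14 h light and 65% humidity. Damage was scored after 13 days on a 0 (none) to 5 (total) scale.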

Avena fatua (AVEFA) [2] = assay: B1 Pre-emergence herbicidal activity; set-up: key: 5=total damage to plant; 0=no damage to plant; conditions: pre-emergence application, rate 1000 g/ha, evaluated after 13 days
In short: as §1

[3] = tested on: Triticum aestivium (TRZAW); assay: B1 Pre-emergence herbicidal activity; set-up: key: 5=total damage to plant; 0=no damage to plant; conditions: pre-emergence application, rate 1000 g/ha, evaluated after 13 days
In short: as §1

[4] = tested on: Echinochloa crus-galli (ECHCG); assay: B1 Pre-emergence herbicidal activity; set-up: key to Pre-emergence herbicidal activity, ECHCG (damage score 0-5): 5=total damage to plant; 0=no damage to plant; conditions: pre-emergence application, rate 1000 g/ha, evaluated after 13 days
In short: as §1

Lolium perenne (LOLPE) [5] = assay: B1 Pre-emergence herbicidal activity; set-up: key to Pre-emergence herbicidal activity, LOLPE (damage score 0-5): 5=total damage to plant; 0=no damage to plant; conditions: pre-emergence application, rate 1000 g/ha, evaluated after 13 days
In short: as §1

Setaria fabenr (SETFA) = assay: B1 Pre-emergence herbicidal activity; set-up: key to Pre-emergence herbicidal activity, SETFA (damage score 0-5): 5=total damage to plant; 0=no damage to plant; conditions: pre-emergence application, rate 1000 g/ha, evaluated after 13 days
In short: as §1

Avena fatua (AVEFA) [6] = assay: B2 Post-emergence herbicidal activity; conditions: post-emergence application, rate 1000 g/ha, evaluated after 13 days
In short: (§2)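 Plants grown 8 days in a glasshouse (24/16° C day/night, 14 h light, 65% humidity) were sprayed post-emergence with active ingredient formulated in acetone/water (50:50) containing 0.5% Tween 20. Damage was scored after 13 days on a 0–5 scale (5 = total damage).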

[7] = tested on: Echinochloa crus-galli (ECHCG); assay: B2 Post-emergence herbicidal activity; set-up: key to Post-emergence herbicidal activity, ECHCG (damage score 0-5): 5=total damage to plant; 0=no damage to plant; conditions: post-emergence application, rate 1000 g/ha, evaluated after 13 days
In short: as §2

Lolium perenne (LOLPE) [8] = assay: B2 Post-emergence herbicidal activity; conditions: post-emergence application, rate 1000 g/ha, evaluated after 13 days
In short: as §2

[9] = tested on: Alopecurus myosuroides (ALOMY); assay: B2 Post-emergence herbicidal activity; set-up: key: 5=total damage to plant; 0=no damage to plant; conditions: post-emergence application, rate 1000 g/ha, evaluated after 13 days
In short: as §2

Setaria fabenri (SETFA) = assay: B2 Post-emergence herbicidal activity; set-up: key: 5=total damage to plant; 0=no damage to plant; conditions: post-emergence application, rate 1000 g/ha, evaluated after 13 days
In short: as §2

[10] = tested on: Triticum aestivium (TRZAW); assay: B2 Post-emergence herbicidal activity; set-up: key: 5=total damage to plant; 0=no damage to plant; conditions: post-emergence application, rate 1000 g/ha, evaluated after 13 days
In short: as §2

Row | Compound | Pre-emergence herbicidal activity, ALOMY (damage score 0-5) [1] | Pre-emergence herbicidal activity, AVEFA (damage score 0-5) (Avena fatua (AVEFA) [2]) | Pre-emergence herbicidal activity, TRAZW (damage score 0-5) [3] | Pre-emergence herbicidal activity, ECHCG (damage score 0-5) [4] | Pre-emergence herbicidal activity, LOLPE (damage score 0-5) (Lolium perenne (LOLPE) [5]) | Pre-emergence herbicidal activity, SETFA (damage score 0-5) (Setaria fabenr (SETFA)) | Post-emergence herbicidal activity, AVEFA (damage score 0-5) (Avena fatua (AVEFA) [6]) | Post-emergence herbicidal activity, ECHCG (damage score 0-5) [7] | Post-emergence herbicidal activity, LOLPE (damage score 0-5) (Lolium perenne (LOLPE) [8]) | Post-emergence herbicidal activity, ALOMY (damage score 0-5) [9] | Post-emergence herbicidal activity, SETFA (damage score 0-5) (Setaria fabenri (SETFA)) | Post-emergence herbicidal activity, TRAZW (damage score 0-5) [10]
1 | CCCCC(=O)Nc1ccc(-c2cncc(F)c2)nc1C(F)(F)F [Compound C49] | 1 | 2 | 0 | 5 | 1 | 5 | 4 | 5 | 3 | 1 | 5 | 0
2 | O=C(Nc1ccc(-c2cncc(F)c2)nc1C(F)(F)F)c1cccnc1 [Compound C50, N-[6-(5-fluoro-3-pyridyl)-2-(trifluoromethyl)-3-pyridyl]pyridine-3-carboxamide] | 0 | 1 | 0 | 3 | 1 | 4 | 3 | 2 | 1 | 1 | 4 | 0
3 | Cc1ccsc1C(=O)Nc1ccc(-c2cncc(F)c2)nc1C(F)(F)F [Compound C51] | 0 | 0 | 0 | 3 | 0 | 4 | 2 | 2 | 1 | 0 | 4 | 0
4 | Cc1ccc(C(=O)Nc2ccc(-c3cncc(F)c3)nc2C(F)(F)F)s1 [Compound C52] | 1 | 1 | 0 | 4 | 1 | 5 | 4 | 4 | 2 | 0 | 5 | 0
5 | O=C(CCC1CCCC1)Nc1ccc(-c2cncc(F)c2)nc1C(F)(F)F [Compound C53] | 1 | 3 | 0 | 5 | 1 | 4 | 4 | 5 | 4 | 0 | 5 | 1
6 | O=C1CCCCN1c1ccc(-c2cncc(F)c2)nc1C(F)(F)F [Compound C54, 1-[6-(5-fluoro-3-pyridyl)-2-(trifluoromethyl)-3-pyridyl]piperidin-2-one] | 0 | 1 | 0 | 2 | 1 | 3 | 3 | 5 | 3 | 1 | 4 | 0

Reference: US11230538B2, “Herbicides” (SYNGENTA PARTICIPATIONS AG, priority 2016, dated 2022)
